From US20070060646A1, “Acylhydrazone derivatives and the use thereof in the inhibition, regulation and/or modulation of kinase signal transduction” (priority 2003, published 2007)

Row | Compound | melting point
1 | COc1cccc(CC(=O)N/N=C/c2ccc(O)cc2O)c1 [compound 24] | 205 to 206 °C
2 | COc1cccc(CC(=O)N/N=C/c2ccc(O)cc2OC)c1 [compound 4] | 166 to 167 °C
3 | COc1cc(O)ccc1/C=N/NC(=O)Cc1cccc(Cl)c1 [compound 11] | 121 to 122 °C
4 | COc1cccc(CC(=O)N/N=C/c2ccc(O)cc2)c1 [compound 15] | 162 to 163 °C
5 | COc1cc(O)ccc1/C=N/NC(=O)Cc1cccc(F)c1 [compound 14] | 111 to 112 °C
6 | COc1cc(O)ccc1/C=N/NC(=O)Cc1ccc(Cl)c(Cl)c1 [compound 7] | 232 to 233 °C
7 | COc1cc(O)ccc1/C=N/NC(=O)Cc1cccc(Br)c1 [compound 33] | 214 to 215 °C
8 | COc1cc(O)ccc1/C=N/NC(=O)Cc1ccccc1Cl [compound 10] | 134 to 135 °C
9 | COc1cccc(CC(=O)N/N=C(\C)c2ccc(O)cc2OC)c1 [compound 18] | 160 to 162 °C
10 | COc1cccc(CC(=O)N/N=C/c2c(C)cc(O)cc2C)c1 [compound 16] | 172 to 173 °C
11 | COc1cc(O)ccc1/C=N/NC(=O)Cc1cccc(C(F)(F)F)c1 [compound 22] | 203 to 204 °C
12 | COc1cc(O)ccc1/C=N/NC(=O)Cc1ccccc1F [compound 41] | 213 to 215 °C
13 | COc1cc(O)ccc1/C=N/NC(=O)Cc1ccc(O)cc1 [compound 6] | 224 °C
14 | COc1cccc(CC(=O)N/N=C/c2cc(Cl)ccc2O)c1 [compound 28] | 178 to 179 °C
15 | Cc1cc(O)ccc1/C=N/NC(=O)Cc1cccc(O)c1 [compound 37] | 203 to 204 °C
16 | COc1cc(O)ccc1/C=N/NC(=O)Cc1ccccc1C [compound 9] | 119 to 120 °C
17 | COc1cccc(CC(=O)N/N=C/c2ccc(O)c(F)c2)c1 [compound 17] | 190 to 191 °C
18 | O=C(Cc1ccccc1)N/N=C/c1ccc(O)c(F)c1 [compound 5] | 207 °C
19 | CCOc1cc(O)ccc1/C=N/NC(=O)Cc1cccc(O)c1 [compound 38] | 190 to 192 °C
20 | COc1cccc(OCC(=O)N/N=C/c2ccc(O)cc2OC)c1 [compound 25] | 173 to 174 °C

The next lines start with the values.

Row | melting point | Compound
21 | 194 to 195 °C | COc1cc(O)cc(C)c1/C=N/NC(=O)Cc1cccc(O)c1 [compound 40]
22 | 184 to 185 °C | COc1cc(O)ccc1/C=N/NC(=O)Cc1ccc(F)cc1 [compound 12]
23 | 198 to 199 °C | COc1cccc(CC(=O)N/N=C/c2cc([N+](=O)[O-])ccc2O)c1 [compound 29]
24 | 246 °C (dec.) | COc1cc(O)ccc1/C=N/NC(=O)Cc1cc(O)cc(O)c1 [compound 19]
25 | 159 to 160 °C | COc1cccc(CCC(=O)N/N=C/c2ccc(O)cc2OC)c1 [compound 23]
26 | 217 to 218 °C | COc1cc(O)ccc1/C=N/NC(=O)C(O)c1ccccc1 (stereo not shown) [compound 30]
27 | 240 to 241 °C | COc1cc(O)ccc1/C=N/NC(=O)Cc1cccc([N+](=O)[O-])c1 [compound 26]
28 | 242 to 243 °C | COc1cc(O)ccc1/C=N/NC(=O)Cc1ccc(F)cc1Cl [compound 13]
29 | 162 to 164 °C | COc1cccc(CC(=O)N/N=C(\C)c2ccc(O)cc2)c1 [compound 34]
30 | 193 to 194 °C | O=C(Cc1cccc(F)c1)N/N=C/c1ccc(O)c(F)c1 [compound 20]
31 | 224 to 225 °C | COc1cc(O)ccc1/C=N/NC(=O)Cc1cc(F)cc(F)c1 [compound 36]
32 | 207 to 208 °C | COc1cc(O)ccc1/C=N/NC(=O)Cc1cccc(C)c1 [compound 8]
33 | 147 to 148 °C | COc1cccc(CC(=O)N/N=C/c2ccc(OC(C)=O)cc2OC)c1 [compound 21]
34 | 132 °C | COc1cc(O)ccc1/C=N/NC(=O)Cc1cccc(OS(C)(=O)=O)c1 [compound 35]
